Here are results for 30 molecules from US20260274867A1, “PYRIDO[4,3-D]PYRIMIDINE DERIVATIVES AS MUTANT KRAS G12C INHIBITORS FOR THE TREATMENT OF CANCER” (Frontier Medicines Corporation, priority 2023, published 2026).

The target of the assay is T1, KRAS G12C (GMPPNP-loaded, Cys-light, amino acids 1-169) and cRAF Ras-binding domain interaction (Homo sapiens, UniProt P01116, C118S/C51S/C80L/G12C).
T1 construct: truncated version comprising amino acids 1-169
T1 sequence (P01116 1-169 isoform P01116-2 G12C/C51S/C80L/C118S): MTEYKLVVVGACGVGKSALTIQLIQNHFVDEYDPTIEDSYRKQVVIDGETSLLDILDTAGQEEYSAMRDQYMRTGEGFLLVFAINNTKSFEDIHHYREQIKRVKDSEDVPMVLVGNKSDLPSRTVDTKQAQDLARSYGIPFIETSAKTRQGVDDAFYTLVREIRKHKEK
Description: Inhibition of KRAS G12C and cRAF binding (AlphaScreen). The note with it: KRAS G12C preloaded with GMPPNP, 2 hours compound incubation, room temperature. The protocol: The AlphaScreen technology was used to determine IC50s for compound inhibition of KRAS G12C (present as the Cys-light (C51S, C80L and C118S), truncated version comprising amino acids 1-169) and cRAF interaction. Compounds were diluted in 100% DMSO and each compound concentration was spotted at 200 nl/well onto low volume, white 384 well plates. The KRAS G12C contained a biotin-AviTag and the cRaf, as Ras-binding domain (amino acids 50-131, RBD), was GST-tagged. KRAS G12C was preloaded with the GTP analogue Guanosine 5′-[…] (GMPPNP). The KRAS G12C was diluted in 25 mM Hepes, pH 7.4, 150 mM NaCl, 5 mM MgCl2, 0.01% TritonX-100 and 10 μM GMPPNP and added at 10 ul/well to compound-spotted plates resulting in a DMSO concentration of 2%. Plates were incubated for 2 hours. A mixture of RBD and the AlphaScreen streptavidin donor and glutathione acceptor beads diluted in 25 mM Hepes, pH 7.4, 150 mM NaCl, 5 mM MgCl2, 0.01% TritonX-100 and 2% DMSO was then added at 10 ul/well and incubated for 60-90 minutes before the samples were read for emission at 570 nm after excitation of the donor beads at 680 nm. All incubations were performed at room temperature. The final top compound concentration was 50 μM with 1:3 titrations for 10-point dose response curves. Final assay conditions were 0.5 nM KRAS G12C, 0.75 nM RBD and 5 μg/ml each of AlphaScreen donor and acceptor beads. IC50s were determined using nonlinear regression fit of [inhibitor] vs. response (4 parameters).
A counter assay was also set up to rule out inhibitors of the AlphaScreen technology itself. Compound plates were incubated for 2 hours as above with buffer only. The AlphaScreen beads were added as above except biotin-AviTag-GST was substituted for the RBD. Samples were read and analyzed as above.
One may read the IC50 as the point on the concentration scale where inhibition reaches its midpoint. Lower therefore signals greater potency in that assay. For `COC(=O)/C=C(\F)C(=O)N1CCC(N(C)c2nc(OCC34CCCN3CCC4)nc3c2CCN(c2cccc4cccc(Cl)c24)C3)C1` (stereo not drawn) [Compound 1], the half-inhibitory concentration (IC50) was in the range of 10 to 100 nM.
With `Cc1nccc(/C=C(\F)C(=O)N2CCN(c3nc(OCC45CCCN4CCC5)nc4c(F)c(-c5cccc6cccc(Cl)c56)ncc34)C[C@@H]2CC#N)n1` [Compound 2] the figure was under 10 nM; with `Cc1nsc(/C=C(\F)C(=O)N2CCN(c3nc(OCC45CCCN4CCC5)nc4c3CCN(c3cccc5ccc(F)c(Cl)c35)C4)C[C@@H]2CC#N)n1` [Compound 3], under 10 nM; with `CC(C)c1noc(/C=C(\F)C(=O)N2CCN(c3nc(OCC45CCCN4CCC5)nc4c(F)c(-c5cccc6cccc(Cl)c56)ncc34)C[C@@H]2CC#N)n1` [Compound 4], under 10 nM.
In turn, `Cc1nccc(/C=C(\F)C(=O)N2CCN(c3nc(OC[C@@]45CCCN4C[C@H](F)C5)nc4c(F)c(-c5cccc6ccc(F)c(Cl)c56)ncc34)C[C@@H]2CC#N)n1` [Compound 5, 2-((S)-4-(7-(8-chloro-7-fluoronaphthalen-1-yl)-8-fluoro-2-(((2R,7aS)-2-fluorotetrahydro-1H-pyrrolizin-7a(5H)-yl)methoxy)pyrido[4,3-d]pyrimidin-4-yl)-1-((Z)-2-fluoro-3-(2-methylpyrimidin-4-yl)acryloyl)piperazin-2-yl)acetonitrile] yielded an IC50 of under 10 nM.
The value for `N#CC[C@H]1CN(c2nc(OC[C@@]34CCCN3C[C@H](F)C4)nc3c(F)c(-c4cccc5cccc(Cl)c45)ncc23)CCN1C(=O)/C(F)=C/c1ccnc(C2CC2)n1` [Compound 6] was under 10 nM.
As to `N#CC[C@H]1CN(c2nc(OC[C@@]34CCCN3C[C@H](F)C4)nc3c(F)c(-c4cccc5ccc(F)c(Cl)c45)ncc23)CCN1C(=O)/C(F)=C\c1ccnc(C2CC2)n1` [Compound 7], the IC50 was in the range of 10 to 100 nM.
With `N#CC[C@H]1CN(c2nc(OC[C@@]34CCCN3C[C@H](F)C4)nc3c(F)c(-c4cccc5ccc(F)c(F)c45)ncc23)CCN1C(=O)/C(F)=C\c1ccnc(C2CC2)n1` [Compound 8] the figure was 10 to 100 nM; with `CCc1c(F)ccc2cccc(-c3ncc4c(N5CCN(C(=O)/C(F)=C/c6ccnc(C)n6)[C@@H](CC#N)C5)nc(OC[C@@]56CCCN5C[C@H](F)C6)nc4c3F)c12` [Compound 9, 2-((S)-4-(7-(8-ethyl-7-fluoronaphthalen-1-yl)-8-fluoro-2-(((2R,7aS)-2-fluorotetrahydro-1H-pyrrolizin-7a(5H)-yl)methoxy)pyrido[4,3-d]pyrimidin-4-yl)-1-((Z)-2-fluoro-3-(2-methylpyrimidin-4-yl)acryloyl)piperazin-2-yl)acetonitrile], under 10 nM; with `CCc1c(F)ccc2cccc(-c3ncc4c(N5CCN(C(=O)/C(F)=C\c6ccnc(C7CC7)n6)[C@@H](CC#N)C5)nc(OC[C@@]56CCCN5C[C@H](F)C6)nc4c3F)c12` [Compound 10], 100 to 500 nM.
The value for `Cc1nccc(/C=C(\F)C(=O)N2CCN(c3nc(OC[C@@]45CCCN4C[C@H](F)C5)nc4c(F)c(-c5cccc6ccc(F)c(F)c56)ncc34)C[C@@H]2CC#N)n1` [Compound 11, 2-((S)-4-(7-(7,8-difluoronaphthalen-1-yl)-8-fluoro-2-(((2R,7aS)-2-fluorotetrahydro-1H-pyrrolizin-7a(5H)-yl)methoxy)pyrido[4,3-d]pyrimidin-4-yl)-1-((Z)-2-fluoro-3-(2-methylpyrimidin-4-yl)acryloyl)piperazin-2-yl)acetonitrile] was under 10 nM; that for `CN1CCC1/C=C(/F)C(=O)N1CCN(c2nc(OC[C@@]34CCCN3C[C@H](F)C4)nc3c(F)c(-c4cccc5ccc(F)c(F)c45)ncc23)C[C@@H]1CC#N` (stereo partly drawn) [Compound 12] was at least 500 nM.
The value for `CN1CC[C@@H]1/C=C(\F)C(=O)N1CC[C@@H](N(C)c2nc(OC[C@@]34CCCN3C[C@H](F)C4)nc3c(F)c(-c4cccc5ccc(F)c(F)c45)ncc23)C1` [Compound 13] was 100 to 500 nM.
Take `CN1CC[C@@H]1/C=C(/F)C(=O)N1CC[C@@H](N(C)c2nc(OC[C@@]34CCCN3C[C@H](F)C4)nc3c(F)c(-c4cccc5ccc(F)c(F)c45)ncc23)C1` [Compound 14]: the IC50 is 10 to 100 nM.
The value for `CCc1c(F)ccc2cccc(-c3ncc4c(N5CCN(C(=O)/C(F)=C/c6cc(C)nc(C)n6)[C@@H](CC#N)C5)nc(OC[C@@]56CCCN5C[C@H](F)C6)nc4c3F)c12` [Compound 15] was under 10 nM.
The value for `CN1CCC1/C=C(\F)C(=O)N1CCN(c2nc(OC[C@@]34CCCN3C[C@H](F)C4)nc3c(F)c(-c4cccc5ccc(F)c(Cl)c45)ncc23)C[C@@H]1CC#N` (stereo partly drawn) [Compound 16, 2-((2S)-4-(7-(8-chloro-7-fluoronaphthalen-1-yl)-8-fluoro-2-(((2R,7aS)-2-fluorotetrahydro-1H-pyrrolizin-7a(5H)-yl)methoxy)pyrido[4,3-d]pyrimidin-4-yl)-1-((Z)-2-fluoro-3-(1-methylazetidin-2-yl)acryloyl)piperazin-2-yl)acetonitrile] was 100 to 500 nM.
The value for `CN1CCC1/C=C(/F)C(=O)N1CCN(c2nc(OC[C@@]34CCCN3C[C@H](F)C4)nc3c(F)c(-c4cccc5ccc(F)c(Cl)c45)ncc23)C[C@@H]1CC#N` (stereo partly drawn) [Compound 17] was at least 500 nM; that for `Cc1nccc(/C=C(\F)C(=O)N2CCN(c3nc(OC[C@@]45CCCN4C[C@H](F)C5)nc4c(F)c(-c5cccc6cccc(Cl)c56)ncc34)C[C@@H]2CC#N)n1` [Compound 18] was under 10 nM; that for `Cc1cc(/C=C(\F)C(=O)N2CCN(c3nc(OC[C@@]45CCCN4C[C@H](F)C5)nc4c(F)c(-c5cccc6cccc(F)c56)ncc34)C[C@@H]2CC#N)nc(C)n1` [Compound 19] was under 10 nM.
As to `Cc1nccc(/C=C(\F)C(=O)N2CCN(c3nc(OC[C@@]45CCCN4C[C@H](F)C5)nc4c(F)c(-c5cccc(Cl)c5C5CC5)ncc34)C[C@@H]2CC#N)n1` [Compound 20], the IC50 was under 10 nM.
With `N#CC[C@H]1CN(c2nc(OC[C@@]34CCCN3C[C@H](F)C4)nc3c(F)c(-c4cccc5cccc(Cl)c45)ncc23)CCN1C(=O)/C(F)=C/CN1[C@@H]2CC[C@H]1COC2` [Compound 21] the figure was at least 500 nM; with `Cc1nccc(/C=C(\F)C(=O)N2CCN(c3nc(OC[C@@]45CCCN4C[C@H](F)C5)nc4c(F)c(-c5cccc6ccc(F)c(C)c56)ncc34)C[C@@H]2CC#N)n1` [Compound 22], under 10 nM.
With `Cc1nccc(/C=C(\F)C(=O)N2CCN(c3nc(OC[C@@]45CCCN4C[C@H](F)C5)nc4c(F)c(-c5cccc6c(C)c(F)ccc56)ncc34)C[C@@H]2CC#N)n1` [Compound 23] the figure was 10 to 100 nM; with `N#CC[C@H]1CN(c2nc(OC[C@@]34CCCN3C[C@H](F)C4)nc3c(F)c(-c4cccc5ccc(F)c(F)c45)ncc23)CCN1C(=O)/C(F)=C/CN1CCOCC1` [Compound 24], 100 to 500 nM; with `Cc1cc(/C=C(\F)C(=O)N2CCN(c3nc(OC[C@@]45CCCN4C[C@H](F)C5)nc4c(F)c(-c5cccc6cccc(Cl)c56)ncc34)C[C@@H]2CC#N)nc(C)n1` [Compound 26], under 10 nM.
With `Cc1cc(/C=C(\F)C(=O)N2CCN(c3nc(OC[C@@]45CCCN4C[C@H](F)C5)nc4c(F)c(-c5cccc6ccc(F)c(F)c56)ncc34)C[C@@H]2CC#N)nc(C)n1` [Compound 27] the figure was under 10 nM; with `N#CC[C@H]1CN(c2nc(OC[C@@]34CCCN3C[C@H](F)C4)nc3c(F)c(-c4cccc5cccc(F)c45)ncc23)CCN1C(=O)/C(F)=C/CN1[C@@H]2CC[C@H]1COC2` [Compound 28], at least 500 nM; with `C#Cc1c(F)ccc2cccc(-c3ncc4c(N5CCN(C(=O)/C(F)=C/c6cc(C)nc(C)n6)[C@@H](CC#N)C5)nc(OC[C@@]56CCCN5C[C@H](F)C6)nc4c3F)c12` [Compound 29, 2-((S)-1-((Z)-3-(2,6-dimethylpyrimidin-4-yl)-2-fluoroacryloyl)-4-(7-(8-ethynyl-7-fluoronaphthalen-1-yl)-8-fluoro-2-(((2R,7aS)-2-fluorotetrahydro-1H-pyrrolizin-7a(5H)-yl)methoxy)pyrido[4,3-d]pyrimidin-4-yl)piperazin-2-yl)acetonitrile], under 10 nM.
Molecule `C#Cc1c(F)ccc2cccc(-c3ncc4c(N5CCN(C(=O)/C(F)=C/c6ccnc(C)n6)[C@@H](CC#N)C5)nc(OC[C@@]56CCCN5C[C@H](F)C6)nc4c3F)c12` [Compound 30] yielded an IC50 of under 10 nM.
With `N#CC[C@H]1CN(c2nc(OC[C@@]34CCCN3C[C@H](F)C4)nc3c(F)c(-c4cccc5ccc(F)c(Cl)c45)ncc23)CCN1C(=O)/C(F)=C/CN1[C@@H]2CC[C@H]1COC2` [Compound 31] the figure was at least 500 nM.
